In the Kinase Knowledgebase extract (Sharma et al. 2016):

Columns and labels:
[1] = target: PIK3CA (human) (UniProt P42336); experiment: Assessment of PIK3CA Kinase Activity Using Homogenous Solution Phase Assay
[2] = target: PIK3CA (human) (UniProt P42336); experiment: Assessment of PIK3CA Kinase Activity Using One Step Solid Phase Assay

Sequence of PIK3CA (human) (P42336 whole entry, looked up): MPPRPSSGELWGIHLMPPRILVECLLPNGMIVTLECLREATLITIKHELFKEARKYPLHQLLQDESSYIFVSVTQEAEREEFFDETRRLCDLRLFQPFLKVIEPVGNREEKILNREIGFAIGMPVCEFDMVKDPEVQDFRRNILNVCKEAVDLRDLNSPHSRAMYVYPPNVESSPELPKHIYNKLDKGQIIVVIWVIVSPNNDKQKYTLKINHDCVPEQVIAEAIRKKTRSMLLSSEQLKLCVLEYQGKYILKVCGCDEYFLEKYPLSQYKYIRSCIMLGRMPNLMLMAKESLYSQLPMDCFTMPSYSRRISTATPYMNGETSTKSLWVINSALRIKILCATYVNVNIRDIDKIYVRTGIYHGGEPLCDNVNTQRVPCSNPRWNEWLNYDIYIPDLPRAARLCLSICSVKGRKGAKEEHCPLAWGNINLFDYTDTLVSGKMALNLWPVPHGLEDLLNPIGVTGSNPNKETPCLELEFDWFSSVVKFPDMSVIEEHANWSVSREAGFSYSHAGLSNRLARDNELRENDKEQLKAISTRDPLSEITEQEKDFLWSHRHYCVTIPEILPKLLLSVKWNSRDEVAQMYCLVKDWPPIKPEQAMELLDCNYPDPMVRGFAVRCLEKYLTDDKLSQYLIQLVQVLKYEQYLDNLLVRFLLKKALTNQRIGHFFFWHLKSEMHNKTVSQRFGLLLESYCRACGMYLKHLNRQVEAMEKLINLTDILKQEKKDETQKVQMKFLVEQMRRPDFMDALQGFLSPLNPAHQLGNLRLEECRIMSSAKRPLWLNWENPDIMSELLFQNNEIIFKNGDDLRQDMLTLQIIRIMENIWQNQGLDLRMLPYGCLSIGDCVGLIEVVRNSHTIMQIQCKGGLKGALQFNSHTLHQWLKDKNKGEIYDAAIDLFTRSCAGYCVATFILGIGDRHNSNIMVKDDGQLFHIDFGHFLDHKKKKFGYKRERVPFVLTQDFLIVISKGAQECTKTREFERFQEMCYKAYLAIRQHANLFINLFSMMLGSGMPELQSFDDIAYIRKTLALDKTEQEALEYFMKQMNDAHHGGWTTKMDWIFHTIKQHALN

SMILES | IC50 [1] | IC50 [2]
Oc1cccc(-c2cc(Nc3cccc4cnccc34)nc(N3CCOCC3)n2)c1 | < 20 µM | –
Oc1cccc(-c2cc(NCCCn3ccnc3)nc(N3CCOCC3)n2)c1 | – | < 20 µM
Oc1cccc(-c2cc(Nc3cccnc3)nc(N3CCOCC3)n2)c1F | < 20 µM | < 20 µM
Oc1cccc(-c2cc(NCCc3ccccn3)nc(N3CCOCC3)n2)c1 | – | < 20 µM
Fc1ccccc1-c1cc(Nc2ccc3[nH]ncc3c2)nc(N2CCOCC2)n1 | – | < 20 µM
COc1ccc(Nc2cc(-c3cccc(O)c3)nc(N3CCOCC3)n2)cc1OC1CCCC1 | – | < 20 µM
COc1ccc(Nc2cc(-c3cccc(O)c3)nc(N3CCOCC3)n2)cc1F | < 20 µM | –
COc1cccc(N2CCN(c3cc(-c4cccc(O)c4)nc(N4CCOCC4)n3)CC2)c1 | < 20 µM | < 20 µM
CC(C)C(=O)Oc1cccc(-c2cc(Nc3cccnc3)nc(N3CCOCC3)n2)c1 | < 20 µM | < 20 µM
Oc1cccc(-c2cc(N(Cc3ccccc3)Cc3ccccc3)nc(N3CCOCC3)n2)c1 | – | < 20 µM
O=[N+]([O-])c1cc(Nc2cc(-c3cccc(O)c3)nc(N3CCOCC3)n2)ccc1O | < 20 µM | –
Oc1cccc(-c2cc(NCc3ccccn3)nc(N3CCOCC3)n2)c1 | < 20 µM | < 20 µM
Oc1cccc(-c2cc(N3CCN(CCc4ccccc4)CC3)nc(N3CCOCC3)n2)c1 | – | < 20 µM
Cc1ccc(Nc2cc(-c3cccc(O)c3)nc(N3CCOCC3)n2)cc1C | < 20 µM | –
COc1cccc(-c2nc(N3CCOCC3)nc(Nc3cccnc3)c2C(=O)O)c1 | – | < 20 µM
COc1ccc(Nc2cc(-c3cccc(O)c3)nc(N3CCOCC3)n2)c(OC)c1 | – | < 20 µM
Oc1cccc(-c2cc(Nc3ccc4nn[nH]c4c3)nc(N3CCOCC3)n2)c1 | < 20 µM | < 20 µM
Oc1cccc(-c2cc(N3CCCNCC3)nc(N3CCOCC3)n2)c1 | < 20 µM | < 20 µM
Oc1cccc(Nc2cc(-c3cccc(O)c3)nc(N3CCOCC3)n2)c1 | – | < 20 µM
Cc1ccc(-c2cc(Nc3cccnc3)nc(N3CCOCC3)n2)cc1O | < 20 µM | < 20 µM
Oc1cccc(-c2cc(Nc3ccc4c(c3)CCC4)nc(N3CCOCC3)n2)c1 | < 20 µM | –
CCOc1ccccc1Nc1cc(-c2cccc(O)c2)nc(N2CCOCC2)n1 | – | < 20 µM
Oc1cccc(-c2cc(Nc3ccc4[nH]ncc4c3)nc(N3CCCCCC3)n2)c1 | < 20 µM | –
Oc1cccc(-c2cc(Nc3ccc4ncccc4c3)nc(N3CCOCC3)n2)c1 | < 20 µM | –
COC(=O)Oc1cccc(-c2cc(Nc3cccnc3)nc(N3CCOCC3)n2)c1 | < 20 µM | < 20 µM

SMILES | IC50 [1] | IC50 [2]
COc1cc(Nc2ccccc2)ccc1Nc1cc(-c2cccc(O)c2)nc(N2CCOCC2)n1 | – | < 20 µM
N[C@@H]1CCCC[C@H]1Nc1cc(-c2cccc(O)c2)nc(N2CCOCC2)n1 | – | < 20 µM
Oc1ccc(F)c(-c2cc(Nc3cccnc3)nc(N3CCOCC3)n2)c1 | < 20 µM | < 20 µM
O=c1[nH]c2ccc(Nc3cc(-c4cccc(O)c4)nc(N4CCOCC4)n3)cc2[nH]1 | < 20 µM | –
CC(C)C(N)C(=O)Oc1cccc(-c2cc(Nc3cccnc3)nc(N3CCOCC3)n2)c1 (stereo unspecified) | < 20 µM | < 20 µM
Cc1ccc(O)cc1-c1cc(Nc2cccnc2)nc(N2CCOCC2)n1 | < 20 µM | –
CCOc1ccc(Nc2cc(-c3cccc(O)c3)nc(N3CCOCC3)n2)cc1 | – | < 20 µM
COc1ccc(Nc2cc(-c3ccccc3)nc(N3CCOCC3)n2)cc1O | – | < 20 µM
COc1ccc(Nc2cc(-c3cccc(O)c3)nc(N3CCOCC3)n2)cc1OC | < 20 µM | –
CCn1c(C)nc2cc(Nc3cc(-c4cccc(O)c4)nc(N4CCOCC4)n3)ccc21 | – | < 20 µM
CCC(CO)(CO)Nc1cc(-c2cccc(O)c2)nc(N2CCOCC2)n1 | < 20 µM | < 20 µM
Nc1cc(-c2cccc(O)c2)nc(N2CCOCC2)n1 | < 20 µM | –
Oc1cccc(-c2cc(Nc3ccc(Oc4ccccc4)cc3)nc(N3CCOCC3)n2)c1 | – | < 20 µM
CCOc1ccc(NC(C)=O)cc1Nc1cc(-c2cccc(O)c2)nc(N2CCOCC2)n1 | < 20 µM | < 20 µM
Oc1cc(-c2cc(Nc3cccnc3)nc(N3CCOCC3)n2)ccc1Cl | < 20 µM | < 20 µM
COc1cccc(C)c1Nc1cc(-c2cccc(O)c2)nc(N2CCOCC2)n1 | – | < 20 µM
Oc1cccc(-c2cc(N(Cc3ccccc3)Cc3nccs3)nc(N3CCOCC3)n2)c1 | < 20 µM | –
Oc1cccc(-c2cc(Nc3ccc4c(c3)NCC4)nc(N3CCOCC3)n2)c1 | < 20 µM | –
Oc1ccc(Br)c(-c2cc(Nc3cccnc3)nc(N3CCOCC3)n2)c1 | < 20 µM | < 20 µM
Fc1cccc(-c2cc(Nc3cccnc3)nc(N3CCOCC3)n2)c1 | < 20 µM | –
C[C@@H]1COC[C@H](C)N1c1cc(-c2cccc(O)c2)nc(N2CCOCC2)n1 | < 20 µM | < 20 µM
Oc1cccc(-c2cc(N3CCN(c4ccccn4)CC3)nc(N3CCOCC3)n2)c1 | < 20 µM | < 20 µM
Cc1ccc(CN(Cc2cccnc2)c2cc(-c3cccc(O)c3)nc(N3CCOCC3)n2)cc1 | – | < 20 µM
Oc1cccc(-c2cc(N3CCC(O)CC3)nc(N3CCOCC3)n2)c1 | – | < 20 µM
Oc1cccc(-c2cc(Nc3ccc(O)nc3)nc(N3CCOCC3)n2)c1 | < 20 µM | < 20 µM

SMILES | IC50 [1] | IC50 [2]
C[C@@H](Nc1cc(-c2cccc(O)c2)nc(N2CCOCC2)n1)c1ccccc1 | < 20 µM | < 20 µM
Oc1ccc(Nc2cc(-c3cccc(O)c3)nc(N3CCOCC3)n2)cc1 | – | < 20 µM
CCCC(=O)Oc1cccc(-c2cc(Nc3cccnc3)nc(N3CCOCC3)n2)c1 | < 20 µM | < 20 µM
Oc1cccc(-c2cc(NCCc3cccnc3)nc(N3CCOCC3)n2)c1 | – | < 20 µM
COc1cc(Nc2cc(-c3cccc(O)c3)nc(N3CCOCC3)n2)cc(OC)c1OC | < 20 µM | –
CN1CCCN(c2cc(-c3cccc(O)c3)nc(N3CCOCC3)n2)CC1 | – | < 20 µM
Nc1cccc(-c2cc(Nc3cccnc3)nc(N3CCOCC3)n2)c1 | < 20 µM | < 20 µM
CCCCOc1ccc(Nc2cc(-c3cccc(O)c3)nc(N3CCOCC3)n2)cc1 | – | < 20 µM
Oc1cccc(-c2cc(Nc3ncccn3)nc(N3CCOCC3)n2)c1 | < 20 µM | < 20 µM
COc1cccc(-c2cc(Nc3cccnc3)nc(N3CCOCC3)n2)c1 | < 20 µM | –
Oc1cccc(-c2cc(Nc3ccccn3)nc(N3CCOCC3)n2)c1 | < 20 µM | –
COc1ccc(OC)c(Nc2cc(-c3cccc(O)c3)nc(N3CCOCC3)n2)c1 | – | < 20 µM
Oc1cccc(-c2cc(Nc3ccc4c(c3)OCCO4)nc(N3CCOCC3)n2)c1 | < 20 µM | –
Oc1cccc(-c2cc(Nc3ccc4c(c3)Cc3ccccc3-4)nc(N3CCOCC3)n2)c1 | < 20 µM | –
CS(=O)(=O)Nc1cccc(-c2cc(Nc3cccnc3)nc(N3CCOCC3)n2)c1 | < 20 µM | < 20 µM
Oc1cccc(-c2cc(Nc3cccc(OCc4ccccc4)c3)nc(N3CCOCC3)n2)c1 | – | < 20 µM
COc1c(Nc2cc(-c3cccc(O)c3)nc(N3CCOCC3)n2)ccc2c1oc1ccccc12 | – | < 20 µM
Oc1cccc(-c2cc(Nc3ccc4c(c3)OCO4)nc(N3CCOCC3)n2)c1 | < 20 µM | –
Oc1cccc(-c2cc(Nc3cccc(Oc4ccccc4)c3)nc(N3CCOCC3)n2)c1 | – | < 20 µM
Oc1cccc(-c2cc(N3CCN(Cc4ccc5c(c4)OCO5)CC3)nc(N3CCOCC3)n2)c1 | – | < 20 µM
Oc1cccc(-c2cc(Nc3ccc4cn[nH]c4c3)nc(N3CCOCC3)n2)c1 | < 20 µM | –
CCOc1ccc(OCC)c(Nc2cc(-c3cccc(O)c3)nc(N3CCOCC3)n2)c1 | – | < 20 µM
Oc1cccc(-c2cc(Nc3ccccc3O)nc(N3CCOCC3)n2)c1 | – | < 20 µM
CC(C)(C)C(=O)Oc1cccc(-c2cc(Nc3cccnc3)nc(N3CCOCC3)n2)c1 | < 20 µM | < 20 µM
Oc1cccc(-c2cc(Nc3cc(-c4ccccc4)ccc3O)nc(N3CCOCC3)n2)c1 | – | < 20 µM

SMILES | IC50 [1] | IC50 [2]
CC(=O)N1CCc2ccc(Nc3cc(-c4cccc(O)c4)nc(N4CCOCC4)n3)cc21 | < 20 µM | –
COc1ccc(Nc2cc(-c3cccc(O)c3)nc(N3CCOCC3)n2)cc1O | < 20 µM | –
COc1cccc(Nc2cc(-c3cccc(O)c3)nc(N3CCOCC3)n2)c1 | – | < 20 µM
COc1cccc(-c2cc(N3CCOCC3)nc(N3CCOCC3)n2)c1 | < 20 µM | < 20 µM
Oc1cccc(-c2cc(NCCc3ccncc3)nc(N3CCOCC3)n2)c1 | < 20 µM | < 20 µM
Oc1cccc(-c2cc(N3CCN(c4cccc(Cl)c4)CC3)nc(N3CCOCC3)n2)c1 | – | < 20 µM
Oc1cccc(-c2cc(Nc3cc(Cl)ccc3O)nc(N3CCOCC3)n2)c1 | – | < 20 µM
Oc1cccc(-c2cc(Nc3ccc4c(c3)OCCCO4)nc(N3CCOCC3)n2)c1 | – | < 20 µM
Oc1cccc(-c2cc(Nc3ccc4[nH]ncc4c3)nc(N3CCCNCC3)n2)c1 | < 20 µM | –
Oc1cccc(-c2cc(Nc3cnccn3)nc(N3CCOCC3)n2)c1 | < 20 µM | –
O=[N+]([O-])c1ccc(N2CCN(c3cc(-c4cccc(O)c4)nc(N4CCOCC4)n3)CC2)cc1 | < 20 µM | < 20 µM
COCCNc1cc(-c2cccc(O)c2)nc(N2CCOCC2)n1 | < 20 µM | < 20 µM
COc1cccc(Nc2cc(-c3cccc(O)c3)nc(N3CCOCC3)n2)c1OC | – | < 20 µM
Oc1cccc(-c2cc(NCc3ccncc3)nc(N3CCOCC3)n2)c1 | < 20 µM | < 20 µM
OCC1CCCN1c1cc(-c2cccc(O)c2)nc(N2CCOCC2)n1 (stereo unspecified) | < 20 µM | –
Oc1cccc(-c2cc(Nc3ccc(O)c(Cl)c3)nc(N3CCOCC3)n2)c1 | < 20 µM | –
NC1CCCC(Nc2cc(-c3cccc(O)c3)nc(N3CCOCC3)n2)C1 (stereo unspecified) | – | < 20 µM
Oc1cccc(-c2cc(Nc3ccc4nc[nH]c4c3)nc(N3CCOCC3)n2)c1 | < 20 µM | –
O=C(CN1CCN(c2cc(-c3cccc(O)c3)nc(N3CCOCC3)n2)CC1)N1CCOCC1 | – | < 20 µM
COc1ccccc1Nc1cc(-c2cccc(O)c2)nc(N2CCOCC2)n1 | – | < 20 µM
COc1ccc(Nc2cc(-c3cccc(O)c3)nc(N3CCOCC3)n2)cc1Cl | < 20 µM | –
FC(F)(F)c1cccc(-c2cc(Nc3cccnc3)nc(N3CCOCC3)n2)c1 | < 20 µM | –
Cc1ccc(CN(Cc2ccccn2)c2cc(-c3cccc(O)c3)nc(N3CCOCC3)n2)cc1 | – | < 20 µM
